This note sets out measurements from BindingDB's records for doi:10.1021/jm000455z (Kissei Pharmaceutical, 2001).

The nature of the experiment: Agonistic activity towards beta-3 adrenoceptor. Mean concentration required to produce 50% relaxation of detrusor before the addition in the ferret detrusor.
`C[C@H](NCCc1ccc(NC(C)(C)C(=O)O)cc1Cl)[C@H](O)c1ccc(O)cc1` gave a concentration giving a half-maximal response (EC50) of 5.62 nM.

As for `C[C@H](NCCc1ccc(NCC(=O)O)cc1)[C@H](O)c1ccc(O)cc1`, the midpoint of the response, the EC50, lay at 24 nM.

`C[C@H](NCCc1ccc(NCC(=O)O)c(Br)c1)[C@H](O)c1ccc(O)cc1`: the half-maximal effective concentration (EC50) was 575 nM.

Consider `C[C@H](NCCc1ccc(NCC(=O)O)c(Cl)c1Cl)[C@H](O)c1ccc(O)cc1`, for which the response was half-maximal at 457 nM (EC50).

Compound `C[C@H](NCCc1ccc(N(C)CC(=O)O)cc1)[C@H](O)c1ccc(O)cc1` gave an EC50 of 52.5 nM.

On to `C[C@H](NCCc1ccc(NCC(=O)O)cc1Cl)[C@H](O)c1ccc(O)cc1`, for which it took 7.24 nM to reach a half-maximal effect (EC50).

Compound `C[C@H](NCCc1cc(Cl)c(N(C)CC(=O)O)c(Cl)c1)[C@H](O)c1ccc(O)cc1` returned an EC50 of 158 nM.

`C[C@H](NCCc1ccc(N(C)CC(=O)O)c(Cl)c1)[C@H](O)c1ccc(O)cc1` had an EC50 of 11 nM.

`C[C@H](NCCc1ccc(NCC(=O)O)c(Cl)c1)[C@H](O)c1ccc(O)cc1` returned a concentration giving a half-maximal response (EC50) of 0.933 nM.

Turning to `C[C@H](NCCc1ccc(NCC(=O)O)c(I)c1)[C@H](O)c1ccc(O)cc1`, the EC50 came to 813 nM.

With `C[C@H](NCCc1cc(Br)c(NCC(=O)O)c(Br)c1)[C@H](O)c1ccc(O)cc1`, the response was half-maximal at 81.3 nM (EC50).

Take `C[C@H](NCCc1cc(Cl)c(NCC(=O)O)cc1Cl)[C@H](O)c1ccc(O)cc1`: the EC50 was found to be 61.7 nM.
